Results published in patent US20110200655A1, “Systems and methods that kill infectious agents (bacteria) without the use of a systemic anti-biotic” (priority 2010, published 2011).

Key:
[1] = system: microorganisms; conditions: tobramycin 2.5 mg/l, 15-400 µA/cm^2 during 8 h; cited from earlier work
[2] = molecular target: MMPs; conditions: compared with Ilomastat; cited from earlier work
[3] = system: E. coli bacteria; experiment: Zone of inhibition of extract solutions on agar culture plate; format: cell-based, Escherichia coli; conditions: 20 microliter drop
Protocol: In this example, a microbicidal utility substrate is made of a nonwoven rayon gauze material graft polymerized with diallyldimethylammonium chloride (DADAMC), and containing approximately 10 weight % poly(DADMAC)), and SofWick, a commercially available rayon gauze material manufactured by Johnson & Johnson were used as substrates. The material was prepared via modification of the SofWick substrate. Each substrate measured approximately 40 square inches. Substrates were dried at 60° C. for 30 minutes and then weighed. Both samples were trimmed to weigh exactly 1.00 grams each. A 0.5 weight % solution of Cefazolin Sodium USP (Geneva Pharmaceuticals) was prepared. Each sample was placed in a 50 mL screw-cap polypropylene centrifuge tube, along with 30 mL of the Cefazolin solution and the tubes were placed on a rotating agitator for 3 hours. The samples were removed from the solutions, then squeezed to remove excess solution, dried at 60° C. for 2 hours, then weighed. The sample weighed 1.05 grams, whereas the SofWick sample weighed 1.00 grams. […] The extraction liquid was saved for analysis.
The dried samples were placed in separate 50 mL centrifuge tubes containing 25 mL of distilled water, then placed in the rotating agitator overnight at room temperature. The samples were then removed, squeezed to remove excess solution, dried at 60° C. for 2 hours, then weighed. The sample weighed 1.03 grams, and the SofWick sample weighed 0.98 grams. […] The extraction liquid was saved for analysis This extraction procedure was repeated […] additional times to yield two series of six extraction liquids.
The extract solutions were tested for antimicrobial activity by placing single 20 microliter drops of the solutions at marked locations on an agar culture plate spread with ~3×10^3 CFU (continuous lawn) of E. coli bacteria. Plates were incubated overnight at 37° C., and the diameter of the “zone of inhibition”, or “ZOI” was measured. The size of this zone corresponds to the antibacterial activity of the extract solutions. […]

[4] = system: Staph. aureus; experiment: as above; format: cell-based, Staphylococcus aureus
Protocol: The extract solutions were tested for antimicrobial activity by placing single 20 microliter drops of the solutions at marked locations on an agar culture plate spread with ~3×10^3 CFU (continuous lawn) of E. coli bacteria. Plates were incubated overnight at 37° C., and the diameter of the “zone of inhibition”, or “ZOI” was measured. The size of this zone corresponds to the antibacterial activity of the extract solutions.
The samples were soaked in 25 mL of 5% PG solution for 2 hours, then squeezed to remove excess solution, dried and weighed. Samples were then washed with 25 mL of distilled water for one hour, then dried and weighed. These wash solutions (G-1 and H-1) were saved for analysis. The samples were then subjected to two additional washings with 25 mL distilled water, without drying in between washings (G-2, G-3, and H-2, H-3). Samples were then dried and weighed.
A repeat of the method of Example 15 was used, except that the extraction solvent used was phosphate buffered saline (“PBS”, pH=7.4, Fisher Scientific), and samples were not dried and weighed between extractions. Samples of a microbicidal utility substrate (Sample I, initial weight=1.024 g) and SofWick (Sample J, initial weight=1.011 g) were each soaked in 20 Ml of ~4% penicillin G solution overnight, and excess solution was removed by squeezing. Samples were then washed with 25 mL distilled water for one hour with agitation, squeezed to remove excess liquid, and then subjected to five sequential extractions using 25 mL of PBS for one hour at room temperature. Samples were squeezed to remove excess solution between extractions. Extracts were tested for antibacterial activity against S. aureus according to the procedure outlined above.
The method of Example 15 was used, except that sodium pyrithione (“SP”, Acros Chemical) was used instead of penicillin. One gram samples of the microbicidal utility substrate (sample K), and untreated SofWick (sample L) were each soaked overnight in 25 ml of 0.5% SP solution. Samples were removed and squeezed to remove excess liquid. Samples were then washed in 25 mL of distilled water for one hour with agitation, then squeezed to remove excess liquid. Each sample was subjected to four sequential extractions using 25 mL of distilled water for one hour at room temperature with agitation. Samples were squeezed to remove excess solution between extraction cycles. The extracts were tested for antibacterial activity against S. aureus using the procedure described above.

## NC[C@H]1O[C@H](O[C@H]2[C@H](O)[C@@H](O[C@H]3O[C@H](CO)[C@@H](O)[C@H](N)[C@H]3O)[C@H](N)C[C@@H]2N)[C@H](N)C[C@@H]1O [tobramycin]
[1]
  killing of microorganisms with current and antibiotic: total killing of microorganisms

## CNC(=O)C(Cc1c[nH]c2ccccc12)NC(=O)C(CC(=O)O)CC(C)C (centres unmarked) [GM1489]
[2]
  Ki values for MMPs: almost as good as Ilomastat

## Cc1nnc(SCC2=C(C(=O)O)N3C(=O)[C@@H](NC(=O)Cn4cnnn4)[C@H]3SC2)s1 [Cefazolin, Cefazolin Sodium USP]
[3]; Cefazolin 0.01% control solution
  ZOI diameter: 0 mm
[3]; Cefazolin 0.1% control solution
  ZOI diameter: 18 mm
[3]; Cefazolin 1% control solution
  ZOI diameter: 40 mm

## [Na+].[O-][n+]1ccccc1[S-] [SP, sodium pyrithione]
[4]; 0.01% SP
  ZIO of SP control solution: 12 mm
[4]; 0.1% SP
  ZIO of SP control solution: 26 am

## CC(C)C[C@H](CC(=O)NO)C(=O)N[C@@H](Cc1c[nH]c2ccccc12)C(=O)O [C-terminal carboxylic form of Ilomastat]
[2]
  Ki values for MMPs: lower

## CC1(C)S[C@@H]2[C@H](NC(=O)Cc3ccccc3)C(=O)N2[C@H]1C(=O)[O-].[K+] [Penicillin G, Penicillin G Potassium]
[4]; Penicillin G 0.01% control solution
  ZOI diameter: 0 mm
[4]; Penicillin G 0.1% control solution
  ZOI diameter: 44 mm
[4]; Penicillin G 1.0% control solution
  ZOI diameter: 56 mm
